Patent US8680282B2, “Cyclic inhibitors of carnitine palmitoyltransferase and treating cancer” (University Health Network, priority 2007, dated 2014)

Tests used:
Test in all cases: Cancer cell growth inhibition, SRB assay
H358 = type: cell-based, human; design: Percentage of Growth Inhibition: unit not given here; conditions: SRB at Day 6; for Percentage of Growth Inhibition: H358, at 10 μM, NE = no activity at 10 micromolar; for GI50: Homo sapiens, NCI-H358, 144 h, H358 (Lung), triplicate
Experimental: (§1) Human cancer cells (MCF-7, H358, H460, HCT116 p53^+/+, HCT116 p53^−/−, A172, PC-3, DU-145 and SW626) were maintained in DMEM medium containing 10% Fetal Bovine Serum (FBS) (Invitrogen, Burlington, ON, Canada) and normal cells HMEC, 184A1, NHBE and PrEC were cultured in MEGM, MEGM plus transferring and cholera toxin, BEGM and PrEGM supplemented with various growth factors (Cambrex, Charles city, Iowa, USA), respectively.
(§2) Compounds of Examples S1 to S30, and 4-(carboxymethyl)-4-(6-(3-hexyloxy)phenoxy)hexanoamido)-1,1-dimethylpiperidinium 2,2,2-trifluoroactate (“Compound A”) were tested in this example. Each of the tested compounds was dissolved in DMSO and further diluted in cell culture medium for the experiments performed. Cells were seeded into 96-well plates with 1,500-5,000 cells/well according to cell growth rate. After 24 h, DMEM medium containing 10% FBS were changed to DMEM containing 3% FBS for cancer cells. The compound was added into the cell culture at the indicated concentrations, and the final concentration of DMSO was adjusted to a final concentration of 0.1%. Cell viability was assessed by Sulforhodamine B (SRB) assay at Day 6.
(§3) Sulforhodamine B (SRB) (Sigma, Oakville, ON, Canada) is a water-soluble dye that binds to the basic amino acids of the cellular proteins. Thus, colorimetric measurement of the bound dye provides an estimate of the total protein mass that is related to the cell number. The cells were fixed in situ by gently aspirating off the culture media and adding 50 ul of cold 10% Tri-chloroacetic Acid (TCA) per well and incubated at 4° C. for 30-60 min. The plates were washed five times with water and allowed to air dry for 5 min. 50 ul of 0.4% (w/v) SRB dissolved in 1% (v/v) acetic acid were added into each well, plates were then incubated at RT for 30 min for staining, washed four times with 1% acetic acid to remove any unbound dye and then allowed to air dry for 5 min. Stain was solubilized with 100 ul of 10 mM Tris pH 10.5 per well. Absorbance was read at 570 nm on a spectrophotometer. GI50 (compound concentration required for 50% of growth inhibition) was calculated using GraphPad Prism 4.0 software (GraphPad Software, Inc., San Diego, Calif., USA). Growth inhibition (%) was determined as percentage of cells remaining compared to the DMSO-treated cells as control.

COLO-205 = type: cell-based, human; conditions: SRB at Day 6; for Percentage of Growth Inhibition: COLO-205, at 10 μM, NE = no activity at 10 micromolar; for GI50: Homo sapiens, 144 h, COLO-205 (Colon), triplicate
SW480 = type: cell-based, human; conditions: SRB at Day 6; for Percentage of Growth Inhibition: SW480, at 10 μM, NE = no activity at 10 micromolar; for GI50: Homo sapiens, 144 h, SW480 (Colon), triplicate
SW620 = type: cell-based, human; design: Percentage of Growth Inhibition: scale not given here; conditions: SRB at Day 6; for Percentage of Growth Inhibition: SW620, at 10 μM, NE = no activity at 10 micromolar; for GI50: Homo sapiens, SW-620, 144 h, SW620 (Colon), triplicate
MCF-7 = type: cell-based, human; design: Percentage of Growth Inhibition: scale not given here; conditions: SRB at Day 6; for Percentage of Growth Inhibition: MCF-7, at 10 μM, NE = no activity at 10 micromolar; for GI50: Homo sapiens, MCF7, 144 h, MCF-7 (Breast), triplicate
Experimental: as §1, §2, §3

A172 = type: cell-based, human; conditions: SRB at Day 6; for Percentage of Growth Inhibition: A172, at 10 μM, NE = no activity at 10 micromolar; for GI50: Homo sapiens, A 172, 144 h, A172 (Brain), triplicate
Experimental: as §1, §2, §3

SW626 = type: cell-based, human; design: Percentage of Growth Inhibition: scale not given here; conditions: SRB at Day 6; for Percentage of Growth Inhibition: SW626, at 10 μM, NE = no activity at 10 micromolar; for GI50: Homo sapiens, 144 h, SW626 (Ovarian), triplicate
Experimental: as §1, §2, §3

PC-3 = type: cell-based, human; conditions: SRB at Day 6; for Percentage of Growth Inhibition: PC-3, at 10 μM, NE = no activity at 10 micromolar; for GI50: Homo sapiens, 144 h, PC-3 (Prostate), triplicate
Experimental: as §1, §2, §3

Hs578T = type: cell-based; conditions: Homo sapiens, Hs-578T, 144 h; Hs578T (Breast); SRB at Day 6; triplicate
A549 = type: cell-based, human; design: Percentage of Growth Inhibition: scale not given here; conditions: SRB at Day 6; for GI50: Homo sapiens, 144 h, A549 (Lung), triplicate
Caov-3 = type: cell-based; conditions: Homo sapiens, 144 h; Caov-3 (Ovarian); SRB at Day 6; triplicate

Structure (SMILES)	Percentage of Growth Inhibition (H358)	Percentage of Growth Inhibition (COLO-205) [%]	Percentage of Growth Inhibition (SW480) [%]	Percentage of Growth Inhibition (SW620) [%]	Percentage of Growth Inhibition (MCF-7) [%]	Percentage of Growth Inhibition (A172) [%]	Percentage of Growth Inhibition (SW626) [%]	Percentage of Growth Inhibition (PC-3) [%]	GI50 (Hs578T) [µM]	GI50 (H358) [µM]	GI50 (A549) [µM]	GI50 (A172) [µM]	GI50 (PC-3) [µM]	GI50 (COLO-205) [µM]	GI50 (SW480) [µM]	GI50 (SW620) [µM]	GI50 (MCF-7) [µM]	GI50 (SW626) [µM]	GI50 (Caov-3) [µM]	Percentage of Growth Inhibition (A549; A549, at 10 μM, NE = no activity at 10 micromolar) [%]
CCCCCc1ccc(S(=O)(=O)NC2(CC(=O)O)CCN(C)CC2)cc1 [Example S3, 4-(carboxymethyl)-1-methyl-4-(4-pentylphenylsulfonamido)piperidinium 2,2,2-trifluoroacetate]	0.4638	0.03424	0.0383	0.03948	0.007318															
C[N+]1(C)CCC(CC(=O)O)(NC(=O)c2ccc(CCc3ccccc3)o2)CC1 [Example S5, 4-(Carboxymethyl)-1,1-dimethyl-4-(5-phenethylfuran-2-carboxamido)-piperidinium 2,2,2-trifluoroacetate]	0.08927	0.1219		0.05572	0.02312	0.01342	0.03032													
C[N+]1(C)CCC(CC(=O)O)(NC(=O)c2ccc(C#Cc3ccccc3)o2)CC1 [Example S6, 4-(Carboxymethyl)-1,1-dimethyl-4-(5-(phenylethynyl)furan-2-carboxamido)-piperidinium 2,2,2-trifluoroacetate]	0.1074	0.1543	0.03677	0.05805	0.03714	0.05672	0.2084	0.03591												
CCCCCCCCc1ccc(NS(=O)(=O)NC2(CC(=O)O)CCN(C)CC2)cc1 [Example S7, 4-(carboxymethyl)-1-methyl-4-(N-(4-octylphenyl)sulfamoylamino)-piperidinium 2,2,2-trifluoroacetate]									> 50	20	52	15	6	74	68	> 50	27	> 50	22	
CCCCCCCCc1ccc(NS(=O)(=O)NC2(CC(=O)O)CC[N+](C)(C)CC2)cc1 [Example S8, 4-(carboxymethyl)-1,1-dimethyl-4-(N-(4-octylphenyl)sulfamoylamino)piperidinium 2,2,2-trifluoroacetate]									26	0.9	10	2.2	1.7	5.3	2.8	8.4	2	15	2	
CCCCCCCCc1ccc(NC(=O)NC2(CC(=O)O)CCC[NH+](C)C2)cc1 (stereo not shown) [Example S9, 3-(Carboxymethyl)-1-methyl-3-(3-(4-octylphenyl)ureido)piperidinium 2,2,2-trifluoroacetate]		0.2852	0.00756	0.04904	0.02731		0.02424	0.2585												0.451
CCCCCCCCc1ccc(NC(=O)NC2(CC(=O)O)CCC[N+](C)(C)C2)cc1 (stereo not shown) [Example S10, 3-(carboxymethyl)-1,1-dimethyl-3-(3-(4-octylphenyl)ureido)-piperidinium 2,2,2-trifluoroacetate]									39	1	73	4.6	0.9	1	0.7	2.5	5.1	2.7		
CCCCCc1ccc(S(=O)(=O)NC2(CC(=O)O)CC[N+](C)(C)C2)cc1 (stereo not shown) [Example S20, 3-(carboxymethyl)-1,1-dimethyl-3-(4-pentylphenylsulfonamido)-pyrrolidinium 2,2,2-trifluoroacetate]	0.2773	0.3647	0.02596	0.01263	0.2269	0.1176	0.07399													
CCCCCCCCCCc1ccc(C(=O)NC2(CC(=O)O)CCN(C)C2)cc1 (stereo not shown) [Example S21, 3-(carboxymethyl)-3-(4-decylbenzamido)-1-methylpyrrolidinium 2,2,2-trifluoroacetate]	0.6802	0.02151	0.09568	0.07327	0.01838	0.1417	0.154	0.1562												
CCCCCCCCCCc1ccc(C(=O)NC2(CC(=O)O)CC[N+](C)(C)C2)cc1 (stereo not shown) [Example S22, 3-(Carboxymethyl)-3-(4-decylbenzamido)-1,1-dimethylpyrrolidinium 2,2,2-trifluoroacetate]	0.8129	0.08112	0.6141	0.2089	0.06486	0.1249	0.2198	0.4436												
O=C(O)CC1(NC(=O)c2ccc(C#Cc3ccccc3)o2)CNC1 [Example S26, 3-(carboxymethyl)-3-(5-(phenylethynyl)furan-2-carboxamido)-azetidinium 2,2,2-trifluoroacetate]	0.1437	0.1892	0.04449	0.0551	0.1403		0.07378													
CCCCCCCCc1ccc(N(C)S(=O)(=O)NC2(CC(=O)O)CCC[N+](C)(C)C2)cc1 (stereo not shown) [Example S30, 3-(carboxymethyl)-1,1-dimethyl-3-(N-methyl-N-(4-octylphenyl)-sulfamoylamino)piperidinium 2,2,2-trifluoroacetate]									3	2.9	1	0.6	0.7	1.6	3.5	3.5	3.1	21		
